Each structure is given as a SMILES string.

For one experiment, the system named is HCT116^MTAP Deletion cells. Description: Anti-proliferation assay on cells (Cell-Titer Glo, 10 days). In kind it is cell-based. The note with it: 240 h, HCT116^MTAP Deletion cells, 10 days incubation, CTG readout; read-out: HCT116^MTAP Deletion GI50. The protocol: HCT116^MTAP Deletion cells were from Pharmaron (China); HCT116 cells were from ATCC; McCoy's 5A medium was purchased from Invitrogen (USA); penicillin-streptomycin and fetal bovine serum were purchased from Gibco (USA); a 384-well plate was purchased from PerkinElmer (USA); and Cell-Titer Glo reagent was purchased from Promega (USA).
Compound dissolution: All the compounds were dissolved in dimethyl sulfoxide (DMSO) and then stored. The compounds were stored at room temperature in a dry condition for 3 months for short term storage or at -20 °C for long term storage.
Cell culture and passaging
The cells were cultured strictly in accordance with ATCC requirements. The cell culture medium (McCoy's 5A medium + 10% fetal bovine serum + 1% penicillin + streptomycin) was transferred to a 15 mL centrifuge tube and centrifuged at 1000 rpm for 5 min. The supernatant was removed. The cells were resuspended with complete culture medium, inoculated into a culture dish at the required density, and cultured in an incubator at 37 °C, 95% humid air, and 5% carbon dioxide. The culture medium was replenished or the cells were passaged every 2-3 days depending on the cell growth condition.
Cell proliferation activity assay
When the confluency of cells in the culture dish reached about 90%, the cells were washed twice with PBS, and then treated with trypsin to become single cells. The cells were counted, and 40µl of the cells was inoculated into each well of a 384-well plate (50 cells/well). The plate was equilibrated at 37 °C and 5% carbon dioxide for 10 to 15 minutes. The compounds were injected into the 384-well plate using Echo550, and positive control and negative control (0.1% DMSO) were set up. Each compound was subjected to a 3-fold dilution, resulting in 10 concentration gradients, in duplicate, and the content of DMSO was 0.1%. The 384-well plate was incubated in a cell culture incubator for 10 days.
Then, 40 µl of cell proliferation assay reagent (CTG) was added to the 384-well plate, and the plate was shaken to mix well. Then, the 384-well plate was incubated at 37 °C and 5% carbon dioxide in the dark for 30 minutes. The data were read using the Envision multifunctional microplate reader. […] According to the different drug concentrations and their corresponding inhibition rates, the GI50 curve was drawn using GraphPad 8.0 software. The data were analyzed, and the final IC50 value was obtained.
By GI50 is commonly meant the concentration giving 50% growth inhibition. Regarding `CN(C(=O)C(=O)Nc1cnc(N)c2c1COC2)C1CCOCc2cc(C(F)(F)F)ccc21` (stereo not drawn) [Example 49], the GI50 fell in the range of 0.1 to 1 µM.

For the compound `Cn1ncc2c(NC(=O)C(=O)N(Cc3ccc(C(F)(F)F)cn3)Cc3ccnc4[nH]ccc34)cnc(N)c21` [Example 50], the GI50 is below 0.01 µM.

With `C[C@H](C1CC1)N(Cc1ccc(C(F)(F)F)cn1)C(=O)C(=O)Nc1cnc(N)c2c1cnn2C` [Example 51], the GI50 lay in the range of 0.01 to 0.1 µM.

Consider `Cc1cc(NC(=O)C(=O)N(Cc2ccc(C(F)(F)F)cn2)CC23CC(C2)C3)cnc1N` [Example 53], for which the concentration for 50% growth inhibition (GI50) lay within 0.1 to 1 µM.

`CCC(C)N(Cc1ccc(C(F)(F)F)cn1)C(=O)C(=O)Nc1cnc(N)c2c1COC2` (stereo not drawn) [Example 54]: the 50% growth inhibitory concentration (GI50) is 0.01 to 0.1 µM.

Turning to `Cc1cc(NC(=O)C(=O)N(Cc2ccc(C(F)(F)F)nn2)[C@H](C)c2ncccn2)cnc1N` [Example 55], the GI50 fell in the range of 0.1 to 1 µM.

In the case of `CN(C(=O)C(=O)Nc1cnc(N)c2c1COC2)C1COCc2cc(C(F)(F)F)ccc21` (stereo not drawn) [Example 56], the GI50 was in the range of 0.01 to 0.1 µM.

On to `CCC(C)N(Cc1ccc(C(F)(F)F)nc1)C(=O)C(=O)Nc1cnc(N)c(C)c1` (stereo not drawn) [Example 57], for which the 50% growth inhibitory concentration (GI50) lay in the range of 0.1 to 1 µM.

On to `CCC(C)N(Cc1cnc(C(F)(F)F)nc1)C(=O)C(=O)Nc1cnc(N)c(C)c1` (stereo not drawn) [Example 58], for which the GI50 was above 10 µM.

For `CCC(C)N(Cc1ccc(C(F)(F)F)cc1)C(=O)C(=O)Nc1cnc(N)c(C)c1` (stereo not drawn) [Example 59], the GI50 lay in the range of 0.01 to 0.1 µM.

Regarding `Cc1cc(NC(=O)C(=O)N(Cc2ccc(C(F)(F)F)cn2)C2CCCc3cn[nH]c32)cnc1N` (stereo not drawn) [Example 60], the concentration for 50% growth inhibition (GI50) lay within 0.1 to 1 µM.

Consider `CCC(C)N(Cc1ccc(Cl)cn1)C(=O)C(=O)Nc1cnc(N)c(C)c1` (stereo not drawn) [Example 61], for which the GI50 fell in the range of 0.1 to 1 µM.

With `CCOc1ccc(CN(C(=O)C(=O)Nc2cnc(N)c(C)c2)C(C)CC)nc1` (stereo not drawn) [Example 62], the 50% growth inhibitory concentration (GI50) lay in the range of 0.01 to 0.1 µM.

As for `Nc1ncc(NC(=O)C(=O)N(Cc2ccc(C(F)(F)F)cn2)Cc2ccnc3[nH]ccc23)c2c1COC2` [Example 64], the 50% growth inhibitory concentration (GI50) was 0.01 to 0.1 µM.

As for `CCC(C)N(Cc1ccc(C(F)(F)F)nn1)C(=O)C(=O)Nc1cnc(N)c(C)c1` (stereo not drawn) [Example 65], the concentration for 50% growth inhibition (GI50) lay within 0.1 to 1 µM.

For `CCC(C)N(Cc1ncc(C)s1)C(=O)C(=O)Nc1cnc(N)c(C)c1` (stereo not drawn) [Example 66], the 50% growth inhibitory concentration (GI50) was 1 to 10 µM.

On to `CN(Cc1ccc2sc(C3CCOCC3)nc2c1)C(=O)C(=O)Nc1cnc(N)c2c1COC2` [Example 67], for which the concentration for 50% growth inhibition (GI50) lay within 1 to 10 µM.

For the compound `CC(c1cscn1)N(Cc1ccc(C(F)(F)F)cn1)C(=O)C(=O)Nc1cnc(N)c2c1COC2` (stereo not drawn) [Example 68], the GI50 was 0.01 to 0.1 µM.

For `CCC(C)N(Cc1ccc(S(F)(F)(F)(F)F)cc1)C(=O)C(=O)Nc1cnc(N)c(C)c1` (stereo not drawn) [Example 69], the 50% growth inhibitory concentration (GI50) fell in the range of 0.1 to 1 µM.

As for `Cc1cc(NC(=O)C(=O)N(Cc2ccc(C(F)(F)F)cn2)CC2CC(F)(F)C2)cnc1N` [Example 70], the GI50 lay within 0.1 to 1 µM.

In the case of `CCC(C)N(Cc1ccc(C2CC2)cn1)C(=O)C(=O)Nc1cnc(N)c(C)c1` (stereo not drawn) [Example 71], the GI50 was in the range of 0.01 to 0.1 µM.

For the compound `CCC(C)N(Cc1ccn(C)n1)C(=O)C(=O)Nc1cnc(N)c(C)c1` (stereo not drawn) [Example 72], the GI50 lay within 1 to 10 µM.

Take `CCC(C)N(C(=O)C(=O)Nc1cnc(N)c(C)c1)C(C)c1ccc(C(F)(F)F)cn1` (stereo not drawn) [Example 74]: the concentration for 50% growth inhibition (GI50) was 1 to 10 µM.

Consider `CCC(C)N(Cc1cc(C)n(C)n1)C(=O)C(=O)Nc1cnc(N)c(C)c1` (stereo not drawn) [Example 75], for which the concentration for 50% growth inhibition (GI50) is 0.1 to 1 µM.

As for `CCC(C)N(Cc1nc(C)cs1)C(=O)C(=O)Nc1cnc(N)c(C)c1` (stereo not drawn) [Example 76], the GI50 was in the range of 0.1 to 1 µM.

For `CCC(C)N(Cc1ccc(C#N)c(Cl)n1)C(=O)C(=O)Nc1cnc(N)c(C)c1` (stereo not drawn) [Example 77], the GI50 lay in the range of 0.01 to 0.1 µM.

With `CCC(C)N(Cc1ccc(C(F)(F)F)cn1)C(=O)C(=O)Nc1cnc(N)c(C2CC2)c1` (stereo not drawn) [Example 78], the GI50 lay in the range of 0.1 to 1 µM.

Turning to `CC1OCc2c(NC(=O)C(=O)N(Cc3ccc(C(F)(F)F)cn3)CC3CC3)cnc(N)c21` (stereo not drawn) [Example 79], the GI50 lay within 0.1 to 1 µM.

On to `CCC(C)N(Cc1ccc(OC(C)C)cn1)C(=O)C(=O)Nc1cnc(N)c(C)c1` (stereo not drawn) [Example 80], for which the 50% growth inhibitory concentration (GI50) was 0.01 to 0.1 µM.

`CC1OCc2c(NC(=O)C(=O)N(Cc3ccc(C(F)(F)F)cn3)Cc3ccnc4[nH]ccc34)cnc(N)c21` (stereo not drawn) [Example 81]: the GI50 is below 0.01 µM.

For `CCC(C)N(Cc1ncc(C(F)(F)F)cn1)C(=O)C(=O)Nc1cnc(N)c(C)c1` (stereo not drawn) [Example 82], the GI50 was 0.1 to 1 µM.

Turning to `CCC(C)N(Cc1ccc(OC2CC2)cn1)C(=O)C(=O)Nc1cnc(N)c(C)c1` (stereo not drawn) [Example 83], the GI50 is 0.01 to 0.1 µM.

Turning to `COC(=O)N1CC=C(c2ccc(CN(C(=O)C(=O)Nc3cnc(N)c(C)c3)[C@H](C)c3ncccn3)nc2)CC1` [Example 84], the GI50 fell in the range of 0.01 to 0.1 µM.

For the compound `CCC(C)N(Cc1ccc(S(C)(=O)=O)cn1)C(=O)C(=O)Nc1cnc(N)c(C)c1` (stereo not drawn) [Example 85], the 50% growth inhibitory concentration (GI50) lay in the range of 0.1 to 1 µM.

Turning to `Cc1cc(NC(=O)C(=O)N(Cc2ccc(C(F)(F)F)cn2)C(C)C(C)C)cnc1N` (stereo not drawn) [Example 86], the GI50 was 0.01 to 0.1 µM.

Regarding `CCC(C)N(Cc1cccc(C(F)(F)F)n1)C(=O)C(=O)Nc1cnc(N)c(C)c1` (stereo not drawn) [Example 87], the concentration for 50% growth inhibition (GI50) fell in the range of 0.1 to 1 µM.

For `CCC(C)N(Cc1ccc(OC(F)(F)F)cn1)C(=O)C(=O)Nc1cnc(N)c(C)c1` (stereo not drawn) [Example 92], the 50% growth inhibitory concentration (GI50) lay within 0.01 to 0.1 µM.

Consider `CC(C)N(C(=O)C(=O)Nc1cnc(N)c2c1cnn2C)C1COCc2cc(C(F)(F)F)ccc21` (stereo not drawn) [Example 96], for which the GI50 was in the range of 0.01 to 0.1 µM.

For `CCCN(C(=O)C(=O)Nc1cnc(N)c2c1cnn2C)C1COCc2cc(C(F)(F)F)ccc21` (stereo not drawn) [Example 97], the 50% growth inhibitory concentration (GI50) was below 0.01 µM.

As to `CCN(C(=O)C(=O)Nc1cnc(N)c2c1cnn2C)C1COCc2cc(C(F)(F)F)ccc21` (stereo not drawn) [Example 101], the concentration for 50% growth inhibition (GI50) is below 0.01 µM.

For `Cn1ncc2c(NC(=O)C(=O)N(CC3CC3)C3COCc4cc(C(F)(F)F)ccc43)cnc(N)c21` (stereo not drawn) [Example 102], the 50% growth inhibitory concentration (GI50) was below 0.01 µM.

On to `CC(C)CN(C(=O)C(=O)Nc1cnc(N)c2c1cnn2C)C1COCc2cc(C(F)(F)F)ccc21` (stereo not drawn) [Example 103], for which the concentration for 50% growth inhibition (GI50) was below 0.01 µM.

`CCC(C)N(Cc1cc(C(F)(F)F)ccn1)C(=O)C(=O)Nc1cnc(N)c(C)c1` (stereo not drawn) [Example 105]: the concentration for 50% growth inhibition (GI50) was 0.1 to 1 µM.

As for `Cc1cc(NC(=O)C(=O)N(CC(C)C)c2cccc(C(F)(F)F)c2)cnc1N` [Example 107], the concentration for 50% growth inhibition (GI50) was above 10 µM.

Take `CN(C(=O)C(=O)Nc1cnc(N)c2c1cnn2C)C1COCc2cc(C3=CCCOC3)ccc21` (stereo not drawn) [Example 108]: the GI50 lay within 0.01 to 0.1 µM.

In the case of `[2H]C([2H])([2H])N(C(=O)C(=O)Nc1cnc(N)c2c1cnn2C)C1COCc2cc(C(F)(F)F)ccc21` (stereo not drawn) [Example 109], the GI50 was below 0.01 µM.

Turning to `CN(C(=O)C(=O)Nc1cnc(N)c2c1cnn2C)C1COCc2cc(C(F)(F)F)cnc21` (stereo not drawn) [Example 114], the GI50 was in the range of 0.1 to 1 µM.

Regarding `CN(C(=O)C(=O)Nc1cnc(N)c2c1cnn2C)C1COCc2cc(OC(F)(F)F)ccc21` (stereo not drawn) [Example 115], the GI50 is below 0.01 µM.

Take `CC(C)N(C(=O)C(=O)Nc1cnc(N)c2c1cnn2C)C1COc2cc(C(F)(F)F)ccc21` (stereo not drawn) [Example 116]: the GI50 was in the range of 0.01 to 0.1 µM.

As for `CCCN(C(=O)C(=O)Nc1cnc(N)c2c1cnn2C)C1COc2cc(C(F)(F)F)ccc21` (stereo not drawn) [Example 117], the GI50 fell in the range of 0.01 to 0.1 µM.

Staying with this experiment, now noted: HCT116^MTAP Deletion cells, 10 days incubation, CTG readout; read-out: HCT116^MTAP Deletion GI50.
For the compound `Nc1ncc(NC(=O)C(=O)N(Cc2ccc(C(F)(F)F)cn2)CC2CCC2)c2c1COC2` [Example 41], the concentration for 50% growth inhibition (GI50) was in the range of 0.1 to 1 µM.

As for `Cc1cc(NC(=O)C(=O)N(Cc2ccc(C3=CCOCC3)nn2)[C@H](C)c2ncccn2)cnc1N` [Example 42], the concentration for 50% growth inhibition (GI50) fell in the range of 0.1 to 1 µM.

With `Cn1ncc2c(NC(=O)C(=O)N(Cc3ccc(C(F)(F)F)cn3)CC3CC3)cnc(N)c21` [Example 43], the 50% growth inhibitory concentration (GI50) is below 0.01 µM.

`CC(c1cscn1)N(Cc1ccc(C(F)(F)F)cn1)C(=O)C(=O)Nc1cnc(N)c2c1cnn2C` (stereo not drawn) [Example 44]: the GI50 is 0.01 to 0.1 µM.

For the compound `CCC(C)N(Cc1ccc(C(F)(F)F)cn1)C(=O)C(=O)Nc1cnc(N)c2c1cnn2C` (stereo not drawn) [Example 46-P2], the GI50 was in the range of 0.01 to 0.1 µM.

For `CN(C(=O)C(=O)Nc1cnc(N)c2c1cnn2C)C1COCc2cc(C(F)(F)F)ccc21` (stereo not drawn) [Example 48], the GI50 is below 0.01 µM.

Take `CCC(C)N(Cc1ccc(C(F)(F)F)cn1)C(=O)C(=O)Nc1cnc(N)c2c1cnn2C` (stereo not drawn) [Example 52]: the concentration for 50% growth inhibition (GI50) was below 0.01 µM.

With `CCC(C)N(Cc1ccc(OCC(F)(F)F)nn1)C(=O)C(=O)Nc1cnc(N)c(C)c1` (stereo not drawn) [Example 63], the concentration for 50% growth inhibition (GI50) is 0.1 to 1 µM.

For `CCC(C)N(Cc1cnn(C)c1)C(=O)C(=O)Nc1cnc(N)c(C)c1` (stereo not drawn) [Example 73], the GI50 is above 10 µM.

`CC(C)C(C)N(Cc1ccc(C(F)(F)F)cn1)C(=O)C(=O)Nc1cnc(N)c2c1cnn2C` (stereo not drawn) [Example 110-P2]: the concentration for 50% growth inhibition (GI50) was below 0.01 µM.
